Like-named read-outs stand apart in the source and are kept apart here.
Legend:
Assay type in all cases: cell-based, human
KG1 = experiment: Clonogenic output of KG1 in methylcellulose; details: 25 μM
Method: (§1) Cell lines: Human leukemic cell lines were obtained from the American Type Culture Collection (ATCC, Rockville, Md., USA). They were cultured in Iscove's Modified Dulbecco's Medium (IMDM) supplemented with 10% heat inactivated fetal calf serum (FCS), 200 U/ml penicillin, 200 μg/ml streptomycin and 1 μg/ml amphotericin B. Cells were cultured in a 5% CO2-95% air fully humidified incubator. For effects on clonogenic output, 1000 cells/well were plated in duplicate in methylcellulose (0.9%), supplemented with 20% FCS for 14 days.
Clonogenic output of KG1 was tested in methylcellulose with 25 μM of some of the novel compounds. Colony output vs. control cultures without novel compound, was 16% for 26, 19% for […] and 0% for 201.

[1] = tested on: CD34+CD38+ hematopoietic progenitors from adult bone marrow; experiment: Myeloid colony-forming unit (CFU) assay; details: for IC50: 14 days; for Colony output for CFU-E, CFU-G and CFU-M (output of the different types of myeloid colonies): scored differentially
Description: Adult Bone Marrow Cells (ABM): Bone marrow samples were obtained by sternal puncture from hematologically normal donors undergoing cardiac surgery, after obtaining informed consent according to the ethical regulations of the University of Antwerp. Cells were collected in IMDM supplemented with 10% FCS and 100 U/ml heparin and separated by density gradient as mentioned for PBMC. After washing, cells were resuspended in IMDM 10% FCS and were sorted on a FACStar (Becton Dickinson, Erembodegem, Belgium). Cell sorting: ABM cells (10^7 cells/ml) were incubated with 43A1 hybridoma supernatant at a 1/10 dilution for 20 minutes at 4° C. The supernatant of the 43A1 hybridoma (immunoglobulin IgG3) was kindly donated by Dr. […] (University of Tübingen, Germany) and was used as a source of anti-CD34 antibodies. After washing twice in IMDM, the cells were incubated with FITC-conjugated rabbit anti-mouse IgG (1/40 dilution) for 20 min at 4° C. […] After washing twice in IMDM, the cells were sorted on a FACStarPlus cell sorter equipped with an water-cooled argon ion laser (INNOVA Enterprise Ion Laser) with multiple wave length outputs including UV (488 nm). Cells with low-to-medium forward and low side scatter, highly positive green (CD34) fluorescence, and an orange (CD38) fluorescence signal lower than the mean fluorescence of cells labeled with an irrelevant isotype-matched control antibody were retained as CD34^+CD38^- cells; cells with an orange fluorescence above this threshold were retained as CD34^+CD38^+ cells. Myeloid Colony-forming unit (CFU) assays: Direct myeloid colony formation of CD34^+CD38^+ cells was assessed in a CFU assay. These assays were initiated with 500 cells per well and plated in duplicate in methylcellulose (0.9%) supplemented with 20% FCS, 1% bovine serum albumin (BSA), 10^-5 M mercaptoethanol and 10 vol. % 5637 conditioned medium of the 5637 bladder carcinoma cell line (containing G-CSF and GM-CSF), 2 U/ml erythropoietin and 30 U/ml interleukine-3 (IL-3). […] The following colony types were scored: myeloid colonies: macrophage (CFU-M), granulocyte (CFU-G), and granulocyte-macrophage (CFU-GM); erythroid colonies (BFU-E (burst-forming units, erythroid) and CFU-E); and mixed erythroid-myeloid colonies (CFU-Mix). CD34^+CD38^+ hematopoietic progenitors (HPC) from adult bone marrow were isolated and investigated for response to novel compounds. CD34^+CD38^+ cells were grown in a methylcellulose system in the presence of increasing concentrations of compounds.

[2] = tested on: T-lymphocyte leukemia Molt3 cell line; experiment: Cell proliferation of Molt3, flow cytometric cell count; details: 96 hours
Method: as §1
(§2) Cells were plated at 10000 per well in 200 μl IMDM medium and incubated with 0-50 μM of the novel compounds (Tab 8), by addition of drug directly to the culture medium and incubated at 37° C. for 96 hours (Tab 8). Absolute cell number was determined by addition of a known concentration Fluoresbrite microspheres (FITC) (Polysciences, Inc.). The absolute number of cells/well was calculated as: {(total number of beads added/well)/(number of beads measured)×(number of measured cells in the gate of interest)}. All analyses were performed with a FACScan (BD), using CELLQuest software (Becton Dickinson).
Response of the myeloid leukemia KG1 and T-lymphocyte leukemia Molt3 cell lines to the cytostatic effect of the novel compounds was determined using the above-mentioned standardized bead suspension that was used to determine the absolute cell number by flow cytometric (FCM) measurement. Cells were grown in the presence of increasing concentration of the novel compounds.

[3] = tested on: PHA-stimulated lymphocytes (PBMC); experiment: Proliferation of PHA-stimulated lymphocytes (PBMC), flow cytometric cell count; details: 96 hours, IL-2
Method: Peripheral blood mononuclear cells (PBMC): Human peripheral blood mononuclear cells were isolated by density gradient (Ficoll-Hypaque) (LSM, ICN Biomedicals Inc.). PBMC were stimulated with 5 μg/ml phytohemaglutinin A (PHA) (Sigma) during 24-48 hours in IMDM supplemented with 10% FCS at 37° C. After washing off the PHA, PBMC were incubated with interleukin-2 (IL-2) (10 U/ml) (Genzyme).
as §2
PHA-stimulated lymphocytes (PBMC) were tested for their cytotoxicity as one of the normal counterparts of the cell lines. Cells were grown for 96 hours in the presence of IL-2 and different concentrations of the novel compounds and cell number was counted on the flow cytometer.

[4] = total colony output, read-out: CFU IC50

Compound | IC50 [1, 4] [µM] | IC50 [2] [µM] | IC50 ([1]; Homo sapiens, 336 h, methylcellulose, read-out: IC50 on CD34+CD38+ hematopoietic progenitors) [µM] | IC50 ([1]; Homo sapiens, 336 h, total colony output, read-out: CFU IC50) [µM] | IC50 ([2]; Homo sapiens, MOLT-3) [µM] | Colony output vs. control cultures (KG1) [%] | Colony output for CFU-E, CFU-G and CFU-M (output of the different types of myeloid colonies) [1] | IC50 [3] [µM] | IC50 ([3]; Homo sapiens, Lymphocyte) [µM]
5-(3-aminoethylamino)-7-(3,4-dihydroxybenzyl)amino-3-isopropylpyrazolo[4,3-d]pyrimidine [Compound 201] | 4.5 | 12 ± 1.8 | – | – | – | 0 | significantly lower colony output | 8 ± 2.2 | –
5-(3-aminopropylamino)-7-benzylamino-3-isopropylpyrazolo[4,3-d]pyrimidine [Compound 17] | 17 | 9.3 ± 0.3 | – | – | – | – | significantly lower colony output | 4 ± 0.2 | –

Now from value to compound, other results behind:

IC50 [1, 4] [µM] | IC50 [2] [µM] | IC50 ([1]; Homo sapiens, 336 h, methylcellulose, read-out: IC50 on CD34+CD38+ hematopoietic progenitors) [µM] | IC50 ([1]; Homo sapiens, 336 h, total colony output, read-out: CFU IC50) [µM] | IC50 ([2]; Homo sapiens, MOLT-3) [µM] | Compound | Colony output vs. control cultures (KG1) [%] | Colony output for CFU-E, CFU-G and CFU-M (output of the different types of myeloid colonies) [1] | IC50 [3] [µM] | IC50 ([3]; Homo sapiens, Lymphocyte) [µM]
– | – | > 50 | 5.4 ± 0.4 | 8 ± 0.4 | CCCCCCNc1nc(NC(CO)c2ccccc2)c2[nH]nc(C(C)C)c2n1 (centres unmarked) [Compound 98, 5-(hexylamino)-7-(1-phenyl-2-hydroxyethylamino)-3-isopropylpyrazolo[4,3-d]pyrimidine] | 19 | – | – | 18 ± 1
> 20 | 8 ± 1.5 | – | – | – | 5-(3-hydroxypropylamino)-7-[(R,S)-(1-phenyl-2-hydroxyethyl)amino-3-isopropylpyrazolo[4,3-d]pyrimidine [Compound 172] | – | significantly lower colony output | 4 ± 0.5 | –
> 50 | 17 ± 2.9 | – | – | – | 5-(methylthio)-7-[N-(3,4-dihydroxybenzyl-N-methyl]amino-3 isopropylpyrazolo[4,3-d]pyrimidine [Compound 26] | 16 | no significant difference | 16.5 ± 0.8 | –

From patent US7745450B2, “Pyrazolo[4,3-d]pyrimidines, processes for their preparation and methods for therapy” (Institute of Experimental Botany, priority 2002, dated 2010)
